For test [1], the target named is T1, NDM-1 (Klebsiella pneumoniae, UniProt C7C422).
T1 construct: made in house
The experiment in a line: In vitro inhibition assay (kinetic fluorescence-based activity assay), NDM-1. The format is biochemical. The following applies: Means and SD of at least two independent experiments. As for the experimental part: (§1) Protein expression and purification. The expression of IMP-7, VIM-1, and NDM-1 was performed according to the protocol previously published by Klingler et al. (Klingler, F. M.; Wichelhaus, T. A.; Frank, D.; Cuesta-Bernal, J.; El-Delik, J.; Müller, H. F.; Sjuts, H.; Gottig, S.; Koenigs, A.; Pos, K. M.; et al. Approved Drugs Containing Thiols as Inhibitors of Metallo-β-Lactamases: Strategy to Combat Multidrug-Resistant Bacteria. J. Med. Chem. 2015, 58 (8), 3626-3630. https://doi.org/10.1021/jm501844d) with slight modifications.
(§2) In vitro inhibition assay. Activity assays for NDM-1, VIM-1, VIM-2 and IMP-7 were carried out, as described by Klingler et al. Final protein concentrations were 0.5 nM (NDM-1), 4.0 nM (VIM-1), and 0.1 nM (IMP-7) in a 50 mM HEPES buffer (pH 7.5, 0.01% Triton X-100) Substrate (Fluorocillin™ (Invitrogen, Darmstadt, Germany) was dissolved in assay buffer to a final concentration of 888 nM. Test compounds were dissolved and pre-diluted in DMSO (final concentration: 1%). In a black polystyrol 96-well plate (Corning) an amount of […] of the respective inhibitor solution at different concentrations was incubated with […] of respective protein containing buffer for 30 minutes at room temperature. […] of substrate solution was added. The readout of the emitted fluorescence was started immediately (45 s for 30 cycles) using a Tecan Infinite F200Pro (Tecan Group Ltd; excitation at 495 nm and emission at 525 nm). Blank controls were performed without enzyme. Positive controls were performed with enzyme but without inhibitor. The inhibitory activity of each test compound was measured in three independent experiments. For calculation of IC50 values, data obtained from measurements with eight different inhibitor concentrations were used. For the evaluation of the sigmoidal dose response equation (variable slope with four parameters) GraphPad Prism 5 (GraphPad Software, La Jolla, Calif., USA) was used.

The target in test [2] is IMP-7 (Pseudomonas aeruginosa, UniProt Q93AU3). The test is described as follows: In vitro inhibition assay (kinetic fluorescence-based activity assay), IMP-7. The format is biochemical. The following applies: Means and SD of at least two independent experiments. As for the experimental part:
as §1, §2

Test [3] concerns the target T2, VIM-1 (Pseudomonas aeruginosa, UniProt A0A0F7KYQ8).
T2 construct: made in house
The experiment in a line: In vitro inhibition assay (kinetic fluorescence-based activity assay), VIM-1. The format is biochemical. The following applies: Means and SD of at least two independent experiments. As for the experimental part:
as §1, §2

The test system of test [4] is different isolates from E. coli and P. aeruginosa. The test is described as follows: MIC assay, intrinsic antibacterial activity. The format is cell-based. The following applies: compound alone.
The test system of test [5] is E. coli NDM-1 (T2359). The experiment in a line: Checkerboard assay with imipenem, E. coli NDM-1 (T2359). The format is cell-based. The following applies: Table 6. As for the experimental part:
(§3) Fractional inhibitory concentration index (FICI). The checkerboard assay was performed to test for synergy in vitro. […] FICIs≤0.5 were defined as synergistic; FICIs from >0.5 to […] were defined as additive; FICIs from 1 to ≤4 were defined as indifferent and FICIs>4 were defined as antagonistic (Doern, C. D. When Does 2 plus 2 Equal 5? A Review of Antimicrobial Synergy Testing. J. Clin. Microbial. 2014, 52 (12), 4124-4128. https://doi.org/10.1128/JCM.01121-14).

Test [6] deals with E. coli VIM-1 (T2544). The experiment in a line: Checkerboard assay with imipenem, E. coli VIM-1 (T2544). The format is cell-based. As for the experimental part: as §3
Test [7] relates to E. coli IMP-1 (T2360). The experiment in a line: Checkerboard assay with imipenem, E. coli IMP-1 (T2360). The format is cell-based. As for the experimental part: as §3

Sequence of IMP-7 (Q93AU3 entry or part of it): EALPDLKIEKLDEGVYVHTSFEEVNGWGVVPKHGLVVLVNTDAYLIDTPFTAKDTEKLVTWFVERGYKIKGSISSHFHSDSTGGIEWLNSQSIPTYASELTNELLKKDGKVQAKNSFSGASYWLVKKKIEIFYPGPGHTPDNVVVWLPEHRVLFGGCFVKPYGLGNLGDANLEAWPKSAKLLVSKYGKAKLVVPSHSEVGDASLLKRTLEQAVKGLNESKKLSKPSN
T1 sequence (C7C422 29-270, looked up, species assumed): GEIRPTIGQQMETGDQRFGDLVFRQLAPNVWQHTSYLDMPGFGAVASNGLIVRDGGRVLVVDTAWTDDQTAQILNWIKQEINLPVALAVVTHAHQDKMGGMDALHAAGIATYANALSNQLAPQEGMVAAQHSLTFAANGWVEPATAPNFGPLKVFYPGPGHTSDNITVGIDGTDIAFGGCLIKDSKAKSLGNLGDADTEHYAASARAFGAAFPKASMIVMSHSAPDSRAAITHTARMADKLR

The IC50 is the concentration needed to halve the response being measured. Read a low IC50 as greater potency in that assay. For `COC(=O)c1ccccc1NC(=O)CCS` [HIPS1685], the IC50 in test [1] was found to be 1.3 ± 0.2 µM; in test [2] it was 1 ± 0.1 µM. Also, the “IC50 (μM) VIM-1” value in test [3] is reported as “n.i”.
For `NC(=O)NS(=O)(=O)c1ccc(NC(=O)CCS)cc1` [HIPS5682], the values for the IC50 in test [1], in test [2] and in test [3] were 8.6 ± 0.2 µM, 12.6 ± 2.8 µM and 2 ± 0.1 µM, respectively. Moreover, the “intrinsic antibacterial activity (MIC)” value in test [4] is listed as “no intrinsic antibacterial activity”. Also, the “Imipenem MIC” value in test [5] (+2 mg/L compound) is 128 µg/mL; in test [5] (+4 mg/L compound), 128 µg/mL; in test [5] (+8 mg/L compound), 128 µg/mL; in test [5] (+16 mg/L compound), 128 µg/mL; in test [5] (+32 mg/L compound) it was 128 µg/mL; in test [5] (+64 mg/L compound) it was 64 µg/mL. Further, the “Imipenem MIC” value in test [5] (+128 mg/L compound) is 16 µg/mL; in test [6] (+2 mg/L compound) it was 32 µg/mL; in test [6] (+4 mg/L compound), 32 µg/mL; in test [6] (+8 mg/L compound), 32 µg/mL; in test [6] (+16 mg/L compound) it was 32 µg/mL; in test [6] (+32 mg/L compound), 16 µg/mL. Moreover, the “Imipenem MIC” value stood at 8 µg/mL in test [6] (+64 mg/L compound); 2 µg/mL in test [6] (+128 mg/L compound); 2 µg/mL in test [7] (+2 mg/L compound); 2 µg/mL in test [7] (+4 mg/L compound); 2 µg/mL in test [7] (+8 mg/L compound); 1 µg/mL in test [7] (+16 mg/L compound). Also, the “Imipenem MIC” value in test [7] (+32 mg/L compound), in test [7] (+64 mg/L compound) and in test [7] (+128 mg/L compound) was 1 µg/mL each time.
For `Nc1ccc(NC(=O)CCS)cc1` [HIPS5666], the IC50 in test [1] amounted to 6.5 ± 0.5 µM; in test [2], 2.1 ± 0.3 µM; in test [3], 0.5 µM.
For `O=C(CCS)Nc1ccc(O)cc1` [HIPS5190], the results for the IC50 in test [1], in test [2] and in test [3] were 4 ± 1.1 µM, 3.4 ± 0.7 µM and 0.2 µM, respectively.
`COC(=O)c1ccc(NC(=O)CCS)cc1` [HIPS5586]: the results for the IC50 in test [1], in test [2] and in test [3] were 2.8 ± 0.1 µM, 1.1 ± 0.7 µM and 0.1 µM, respectively.
For `O=C(CCS)Nc1ccccc1O` [HIPS5661], in that order: 2.2 ± 0.4 µM, 3.3 ± 0.4 µM and 0.2 µM.
In the case of `CN1CCN(Cc2ccc(NC(=O)CCS)cc2)CC1` [HIPS5696], the IC50 in test [1] amounted to 6.4 ± 0.6 µM; in test [2], 5.8 ± 0.4 µM; in test [3] it was 1.5 ± 0.1 µM.
Consider `N=C(N)NS(=O)(=O)c1ccc(NC(=O)CCS)cc1` [HIPS5683], for which the IC50 was 2.1 ± 0.1 µM in test [1], 3.3 ± 0.4 µM in test [2] and 0.5 µM in test [3]. In addition, the “intrinsic antibacterial activity (MIC)” value in test [4] is listed as “no intrinsic antibacterial activity”. The “Imipenem MIC” value in test [5] (+2 mg/L compound) was determined as 128 µg/mL; in test [5] (+4 mg/L compound) it was 128 µg/mL; in test [5] (+8 mg/L compound), 128 µg/mL; in test [5] (+16 mg/L compound), 128 µg/mL; in test [5] (+32 mg/L compound), 128 µg/mL; in test [5] (+64 mg/L compound) it was 64 µg/mL. Besides, the “Imipenem MIC” value in test [5] (+128 mg/L compound) was 16 µg/mL; in test [6] (+2 mg/L compound) it was 32 µg/mL; in test [6] (+4 mg/L compound), 32 µg/mL; in test [6] (+8 mg/L compound) it was 32 µg/mL; in test [6] (+16 mg/L compound), 32 µg/mL; in test [6] (+32 mg/L compound), 16 µg/mL. Also, the “Imipenem MIC” value in test [6] (+64 mg/L compound) amounted to 8 µg/mL; in test [6] (+128 mg/L compound) it was 2 µg/mL; in test [7] (+2 mg/L compound), 2 µg/mL; in test [7] (+4 mg/L compound) it was 1 µg/mL; in test [7] (+8 mg/L compound) it was 1 µg/mL; in test [7] (+16 mg/L compound) it was 1 µg/mL. The “Imipenem MIC” value in test [7] (+32 mg/L compound) came to 1 µg/mL; in test [7] (+64 mg/L compound), 1 µg/mL; in test [7] (+128 mg/L compound) it was 0.5 µg/mL.
Take `O=C(CCS)Nc1cccc(S(=O)(=O)O)c1` [HIPS5672]: the 50% inhibitory concentration (IC50) in test [1] stood at 1.3 µM; in test [2] it was 3.6 ± 0.3 µM; in test [3], 1.6 ± 0.1 µM. In addition, in test [4], the “intrinsic antibacterial activity (MIC)” value is given as “no intrinsic antibacterial activity”. Also, the “Imipenem MIC” value in test [5] (+2 mg/L compound) was 128 µg/mL; in test [5] (+4 mg/L compound), 128 µg/mL; in test [5] (+8 mg/L compound), 128 µg/mL; in test [5] (+16 mg/L compound), 128 µg/mL; in test [5] (+32 mg/L compound), 128 µg/mL; in test [5] (+64 mg/L compound) it was 32 µg/mL. Moreover, the “Imipenem MIC” value was 2 µg/mL in test [5] (+128 mg/L compound); 64 µg/mL in test [6] (+2 mg/L compound); 64 µg/mL in test [6] (+4 mg/L compound); 64 µg/mL in test [6] (+8 mg/L compound); 32 µg/mL in test [6] (+16 mg/L compound); 32 µg/mL in test [6] (+32 mg/L compound). Besides, the “Imipenem MIC” value turned out to be 8 µg/mL in test [6] (+64 mg/L compound); 4 µg/mL in test [6] (+128 mg/L compound); 2 µg/mL in test [7] (+2 mg/L compound); 2 µg/mL in test [7] (+4 mg/L compound); 2 µg/mL in test [7] (+8 mg/L compound); 1 µg/mL in test [7] (+16 mg/L compound). Further, the “Imipenem MIC” value in test [7] (+32 mg/L compound) was 1 µg/mL; in test [7] (+64 mg/L compound) it was 1 µg/mL; in test [7] (+128 mg/L compound), 0.5 µg/mL.

Source of the values: patent US20230146507A1, “N-PHENYL-3-MERCAPTOPROPANAMIDE DERIVATIVES AS METALLO-BETA-LACTAMASE INHIBITORS FOR THE TREATMENT OF BACTERIAL INFECTIONS” (Helmholtz-Zentrum Für Infektionsforschung GmbH, priority 2020, published 2023).
